Laboratory results from ChEMBL document CHEMBL1275440, “In vitro activity of telavancin against resistant gram-positive bacteria” (2008).
In brackets after ≈: the same amount, converted by molar mass. Activity calls are given as the source filed them. The calls are words filed in the database; no cut-off is given here.

Key:
Type in all cases: functional
Staphylococcus aureus [1] = assay: Antibacterial activity against methicillin resistant Staphylococcus aureus clinical isolate assessed as susceptibility level by broth microdilution method
Streptococcus pyogenes [2] = assay: Antibacterial activity against Streptococcus pyogenes MED 2040 assessed as bacterial count at 8 ug/ml after 24 hrs by time-kill assay
Staphylococcus aureus [3] = assay: Antibacterial activity against methicillin resistant Staphylococcus aureus clinical isolate by broth microdilution method
Streptococcus pyogenes [4] = assay: Antibacterial activity against Streptococcus pyogenes MED 2040 assessed as bacterial count at […] after 2 hrs by time-kill assay
[5] = tested on: Staphylococcus saprophyticus; assay: Antibacterial activity against methicillin resistant coagulase-negative Staphylococcus saprophyticus clinical isolate by broth microdilution method
Streptococcus agalactiae [6] = assay: Antibacterial activity against Streptococcus agalactiae MED 2038 assessed as bacterial count at 2 ug/ml after 24 hrs by time-kill assay
Streptococcus agalactiae [7] = assay: Antibacterial activity against Streptococcus agalactiae MED 2038 assessed as bacterial count at 2 ug/ml after 2 hrs by time-kill assay
Streptococcus agalactiae [8] = assay: Antibacterial activity against Streptococcus agalactiae group B clinical isolate by broth microdilution method
Streptococcus pneumoniae [9] = assay: Antibacterial activity against multidrug resistant Streptococcus pneumoniae MED 1090 assessed as bacterial count at […] after 4 hrs by time-kill assay
[10] = tested on: Staphylococcus auricularis; assay: Antibacterial activity against methicillin resistant coagulase-negative Staphylococcus auricularis clinical isolate by broth microdilution method
Enterococcus faecalis [11] = assay: Antibacterial activity against Enterococcus faecalis ATCC 51575 assessed as bacterial count at 4 ug/ml after 4 hrs by time-kill assay
Streptococcus pneumoniae [12] = assay: Antibacterial activity against multidrug resistant Streptococcus pneumoniae MED 1090 assessed as bacterial count at 0.06 ug/ml after 4 hrs by time-kill assay
[13] = tested on: Staphylococcus epidermidis; assay: Antibacterial activity against methicillin resistant Staphylococcus epidermidis ATCC 35984 assessed as bacterial count at 16 ug/ml after 8 hrs by time-kill assay
Enterococcus faecalis [14] = assay: Antibacterial activity against vancomycin resistant Enterococcus faecalis VanB clinical isolate by broth microdilution method
Streptococcus pyogenes [15] = assay: (§1) Antibacterial activity against Streptococcus pyogenes MED 2040 assessed as bacterial count at […] after 4 hrs by time-kill assay
Staphylococcus aureus [16] = assay: Antibacterial activity against methicillin resistant Staphylococcus aureus MED 1805 bloodstream isolate assessed as bacterial count at 2 ug/ml after 24 hrs by time-kill assay
[17] = tested on: Streptococcus intermedius; assay: Antibacterial activity against Streptococcus intermedius clinical isolate by broth microdilution method
Streptococcus mitis = assay: Antibacterial activity against Streptococcus mitis clinical isolate by broth microdilution method
Streptococcus pyogenes [18] = assay: as §1; remark: listed apart in the source
Streptococcus pneumoniae [19] = assay: Antibacterial activity against multidrug resistant Streptococcus pneumoniae MED 1090 assessed as bacterial count at 8 ug/ml after 2 hrs by time-kill assay
Streptococcus agalactiae [20] = assay: Antibacterial activity against Streptococcus agalactiae MED 2038 assessed as bacterial count at […] after 8 hrs by time-kill assay
Enterococcus faecalis [21] = assay: Antibacterial activity against Enterococcus faecalis ATCC 51575 assessed as bacterial count at 8 ug/ml after 2 hrs by time-kill assay

## CCCCCCCCCCNCCN[C@@]1(C)C[C@H](O[C@H]2[C@H](Oc3c4cc5cc3Oc3ccc(cc3Cl)[C@@H](O)[C@@H](NC(=O)[C@@H](CC(C)C)NC)C(=O)N[C@@H](CC(N)=O)C(=O)N[C@H]5C(=O)N[C@H]3C(=O)N[C@H](C(=O)N[C@H](C(=O)O)c5cc(O)c(CNCP(=O)(O)O)c(O)c5-c5cc3ccc5O)[C@H](O)c3ccc(c(Cl)c3)O4)O[C@H](CO)[C@@H](O)[C@@H]2O)O[C@@H](C)[C@H]1O [TELAVANCIN]
Staphylococcus aureus [1]
  Activity: 100%
Streptococcus pyogenes [2]
  log10CFU/ml: 2.7
Staphylococcus aureus [3]
  Activity: 100%
Staphylococcus aureus [3]; Staphylococcus aureus
  MIC50: 0.25 µg/mL (≈ 0.142 µM)
  MIC90: 0.5 µg/mL (≈ 0.285 µM)
Streptococcus pyogenes [4]
  log10CFU/ml: 0.7
[5]
  MIC50: 0.5 µg/mL (≈ 0.285 µM)
  MIC90: 1 µg/mL (≈ 0.57 µM)
Streptococcus agalactiae [6]
  log10CFU/ml: 2.7
Streptococcus agalactiae [7]
  log10CFU/ml: 0.8
Streptococcus agalactiae [8]
  MIC50: 0.06 µg/mL (≈ 0.0342 µM)
  MIC90: 0.06 µg/mL (≈ 0.0342 µM)
Streptococcus pneumoniae [9]
  log10CFU/ml: 1.9
[10]
  MIC50: 0.5 µg/mL (≈ 0.285 µM)
  MIC90: 1 µg/mL (≈ 0.57 µM)
Enterococcus faecalis [11]
  log10CFU/ml: 0.5
Streptococcus pneumoniae [12]
  log10CFU/ml: 2.1
[13]
  log10CFU/ml: 3.3
Enterococcus faecalis [14]
  MIC: 0.25 µg/mL (≈ 0.142 µM)
Streptococcus pyogenes [15]
  log10CFU/ml: 1.8
Staphylococcus aureus [16]
  log10CFU/ml: 2.8
[17]
  MIC: 0.015 µg/mL (≈ 0.00854 µM)
  MIC50: inactive
  MIC90: inactive
Streptococcus mitis
  MIC: 0.015 µg/mL (≈ 0.00854 µM)
  MIC50: inactive
  MIC90: inactive
Streptococcus pyogenes [18]
  log10CFU/ml: 0.4
Streptococcus pneumoniae [19]
  log10CFU/ml: 1.2
Streptococcus agalactiae [20]
  log10CFU/ml: 1.6
Enterococcus faecalis [21]
  log10CFU/ml: 0.2
